How the values were obtained:
Assay in all cases: relative viability (nuclei count vs DMSO), 5 days (fraction); higher = more cells survive
NCI-H647 = tested on: NCI-H647
Method in brief: (§1)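 Cells from lung cancer lines were seeded into 1536-well plates and, one day later, dosed by pin tool. Treatments were either a single drug or a fixed dose of an anchor drug with five library-drug doses (not always all listed) in √10 steps. After 5 days, nuclei were stained in a one-step fixation (final 0.05% Triton X-100, 1% formaldehyde, 1 ug/ml Hoechst) and counted on 4× images, and relative viability is the treated-to-vehicle nuclei ratio, as the median of duplicate plates.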

EKVX = tested on: EKVX
Method in brief: as §1

HARA = tested on: HARA
Method in brief: as §1

SK-MES-1 = tested on: SK-MES-1
Method in brief: as §1

NCI-H2087 = tested on: NCI-H2087
Method in brief: as §1

NCI-H1792 = tested on: NCI-H1792
Method in brief: as §1

LC-2-ad = tested on: LC-2-ad
Method in brief: as §1

NCI-H1395 = tested on: NCI-H1395
Method in brief: as §1

NCI-H1734 = tested on: NCI-H1734
Method in brief: as §1

NCI-H2342 = tested on: NCI-H2342
Method in brief: as §1

NCI-H2170 = tested on: NCI-H2170
Method in brief: as §1

SK-LU-1 = tested on: SK-LU-1
Method in brief: as §1

BEN = tested on: BEN
Method in brief: as §1

NCI-H2405 = tested on: NCI-H2405
Method in brief: as §1

NCI-H1437 = tested on: NCI-H1437
Method in brief: as §1

NCI-H661 = tested on: NCI-H661
Method in brief: as §1

HCC-366 = tested on: HCC-366
Method in brief: as §1

NCI-H596 = tested on: NCI-H596
Method in brief: as §1

NCI-H2228 = tested on: NCI-H2228
Method in brief: as §1

NCI-H1355 = tested on: NCI-H1355
Method in brief: as §1

NCI-H2009 = tested on: NCI-H2009
Method in brief: as §1

HCC-827 = tested on: HCC-827
Method in brief: as §1

LOU-NH91 = tested on: LOU-NH91
Method in brief: as §1

Structure (SMILES): CC1(C)CCC(c2ccc(Cl)cc2)=C(CN2CCN(c3ccc(C(=O)NS(=O)(=O)c4ccc(N[C@H](CCN5CCOCC5)CSc5ccccc5)c(S(=O)(=O)C(F)(F)F)c4)cc3)CC2)C1 [Navitoclax] + COc1cccc2cc(-c3nc([C@H]4CC[C@H](C(=O)O)CC4)n4ncnc(N)c34)[nH]c12 [OSI-027] (partner 0.5 µM)
- relative viability (NCI-H647; first compound 0.005 µM): 0.674
- relative viability (NCI-H647; first compound 0.01581 µM): 0.738
- relative viability (NCI-H647; first compound 0.05 µM): 0.891
- relative viability (NCI-H647; first compound 0.1581 µM): 0.611
- relative viability (NCI-H647; first compound 0.5 µM): 0.597
- relative viability (EKVX; first compound 0.005 µM): 0.684
- relative viability (EKVX; first compound 0.01581 µM): 0.882
- relative viability (EKVX; first compound 0.05 µM): 0.651
- relative viability (EKVX; first compound 0.1581 µM): 0.686
- relative viability (EKVX; first compound 0.5 µM): 0.737
- relative viability (HARA; first compound 0.005 µM): 0.538
- relative viability (HARA; first compound 0.01581 µM): 0.684
- relative viability (HARA; first compound 0.1581 µM): 0.66
- relative viability (HARA; first compound 0.5 µM): 0.459
- relative viability (SK-MES-1; first compound 0.005 µM): 0.624
- relative viability (SK-MES-1; first compound 0.01581 µM): 0.681
- relative viability (SK-MES-1; first compound 0.05 µM): 0.525
- relative viability (SK-MES-1; first compound 0.1581 µM): 0.579
- relative viability (SK-MES-1; first compound 0.5 µM): 0.63
- relative viability (NCI-H2087; first compound 0.005 µM): 0.47
- relative viability (NCI-H2087; first compound 0.01581 µM): 0.679
- relative viability (NCI-H2087; first compound 0.1581 µM): 0.537
- relative viability (NCI-H2087; first compound 0.5 µM): 0.794
- relative viability (NCI-H1792; first compound 0.005 µM): 0.747
- relative viability (NCI-H1792; first compound 0.01581 µM): 0.799
- relative viability (NCI-H1792; first compound 0.05 µM): 0.667
- relative viability (NCI-H1792; first compound 0.1581 µM): 0.726
- relative viability (NCI-H1792; first compound 0.5 µM): 0.705
- relative viability (LC-2-ad; first compound 0.005 µM): 0.802
- relative viability (LC-2-ad; first compound 0.01581 µM): 1.09
- relative viability (LC-2-ad; first compound 0.05 µM): 0.895
- relative viability (LC-2-ad; first compound 0.1581 µM): 0.762
- relative viability (LC-2-ad; first compound 0.5 µM): 0.767
- relative viability (NCI-H1395; first compound 0.005 µM): 0.591
- relative viability (NCI-H1395; first compound 0.01581 µM): 0.77
- relative viability (NCI-H1395; first compound 0.05 µM): 0.601
- relative viability (NCI-H1395; first compound 0.1581 µM): 0.569
- relative viability (NCI-H1395; first compound 0.5 µM): 0.754
- relative viability (NCI-H1734; first compound 0.005 µM): 0.617
- relative viability (NCI-H1734; first compound 0.01581 µM): 0.822
- relative viability (NCI-H1734; first compound 0.1581 µM): 0.53
- relative viability (NCI-H1734; first compound 0.5 µM): 0.622
- relative viability (NCI-H2342; first compound 0.005 µM): 0.579
- relative viability (NCI-H2342; first compound 0.01581 µM): 0.632
- relative viability (NCI-H2342; first compound 0.05 µM): 0.628
- relative viability (NCI-H2342; first compound 0.1581 µM): 0.603
- relative viability (NCI-H2342; first compound 0.5 µM): 0.525
- relative viability (NCI-H2170; first compound 0.005 µM): 0.669
- relative viability (NCI-H2170; first compound 0.01581 µM): 0.814
- relative viability (NCI-H2170; first compound 0.05 µM): 0.787
- relative viability (NCI-H2170; first compound 0.1581 µM): 0.647
- relative viability (NCI-H2170; first compound 0.5 µM): 0.551
- relative viability (SK-LU-1; first compound 0.005 µM): 0.374
- relative viability (SK-LU-1; first compound 0.01581 µM): 0.429
- relative viability (SK-LU-1; first compound 0.05 µM): 0.347
- relative viability (SK-LU-1; first compound 0.1581 µM): 0.374
- relative viability (SK-LU-1; first compound 0.5 µM): 0.319
- relative viability (BEN; first compound 0.005 µM): 0.286
- relative viability (BEN; first compound 0.01581 µM): 0.308
- relative viability (BEN; first compound 0.05 µM): 0.333
- relative viability (BEN; first compound 0.1581 µM): 0.308
- relative viability (BEN; first compound 0.5 µM): 0.281
- relative viability (NCI-H2405; first compound 0.005 µM): 0.664
- relative viability (NCI-H2405; first compound 0.01581 µM): 0.682
- relative viability (NCI-H2405; first compound 0.05 µM): 0.644
- relative viability (NCI-H2405; first compound 0.1581 µM): 0.632
- relative viability (NCI-H2405; first compound 0.5 µM): 0.558
- relative viability (NCI-H1437; first compound 0.005 µM): 0.845
- relative viability (NCI-H1437; first compound 0.01581 µM): 0.974
- relative viability (NCI-H1437; first compound 0.05 µM): 0.932
- relative viability (NCI-H1437; first compound 0.1581 µM): 0.856
- relative viability (NCI-H1437; first compound 0.5 µM): 0.83
- relative viability (NCI-H661; first compound 0.005 µM): 0.734
- relative viability (NCI-H661; first compound 0.01581 µM): 0.775
- relative viability (NCI-H661; first compound 0.05 µM): 0.793
- relative viability (NCI-H661; first compound 0.1581 µM): 0.687
- relative viability (NCI-H661; first compound 0.5 µM): 0.716
- relative viability (HCC-366; first compound 0.005 µM): 0.912
- relative viability (HCC-366; first compound 0.01581 µM): 0.941
- relative viability (HCC-366; first compound 0.1581 µM): 0.972
- relative viability (HCC-366; first compound 0.5 µM): 0.978
- relative viability (NCI-H596; first compound 0.005 µM): 0.765
- relative viability (NCI-H596; first compound 0.01581 µM): 0.684
- relative viability (NCI-H596; first compound 0.1581 µM): 0.953
- relative viability (NCI-H596; first compound 0.5 µM): 0.8
- relative viability (NCI-H2228; first compound 0.005 µM): 0.586
- relative viability (NCI-H2228; first compound 0.01581 µM): 0.726
- relative viability (NCI-H2228; first compound 0.1581 µM): 0.53
- relative viability (NCI-H2228; first compound 0.5 µM): 0.5
- relative viability (NCI-H1355; first compound 0.005 µM): 0.447
- relative viability (NCI-H1355; first compound 0.01581 µM): 0.469
- relative viability (NCI-H1355; first compound 0.05 µM): 0.425
- relative viability (NCI-H1355; first compound 0.1581 µM): 0.397
- relative viability (NCI-H1355; first compound 0.5 µM): 0.431
- relative viability (NCI-H2009; first compound 0.005 µM): 0.598
- relative viability (NCI-H2009; first compound 0.01581 µM): 0.792
- relative viability (NCI-H2009; first compound 0.05 µM): 0.576
- relative viability (NCI-H2009; first compound 0.1581 µM): 0.643
- relative viability (NCI-H2009; first compound 0.5 µM): 0.735
- relative viability (HCC-827; first compound 0.005 µM): 0.767
- relative viability (HCC-827; first compound 0.01581 µM): 0.951
- relative viability (HCC-827; first compound 0.05 µM): 0.74
- relative viability (HCC-827; first compound 0.1581 µM): 0.761
- relative viability (HCC-827; first compound 0.5 µM): 0.812
- relative viability (LOU-NH91; first compound 0.005 µM): 0.775
- relative viability (LOU-NH91; first compound 0.01581 µM): 0.76
- relative viability (LOU-NH91; first compound 0.05 µM): 0.699
- relative viability (LOU-NH91; first compound 0.1581 µM): 0.755
- relative viability (LOU-NH91; first compound 0.5 µM): 0.661
